The values that follow come from patent US20070111965A1, “COMPOSITIONS COMPRISING LIPOXYGENASE INHIBITORS AND CYCLODEXTRIN” (priority 2005, published 2007).

Data set [1] is classed as physicochemical. The text has this: The low solubility in water of certain N-hydroxyurea 5- and/or 12-lipoxygenase inhibitors prevents these beneficial agents from broader use than they would otherwise enjoy if aqueous formulations could be prepared at therapeutically effective concentrations. […] In addition to its poor solubility, zileuton and likely other N-hydroxyurea lipoxygenase inhibitors are predicted to be chemically unstable in aqueous solution for storage at room temperature for prolonged periods of time [Insert Reference]. Degradation is consistent with specific hydronium- or water-catalyzed hydrolysis to afford the carbamic acid, which immediately loses carbon dioxide to generate the hydroxylamine as shown below. [drawing 2]
No buffer catalysis has been observed for zileuton. Using acid- and water-catalyzed rate constants at 25° C., the pseudo first-order rate constant is determined to be approximately 7.8×10^−5 h^−1 over a pH range of about 3.5 to about 7.5. The shelf life at 10% drug loss is calculated to be 57.3 days at an optimal pH of 5.6.
Based on literature data [Alvarez, F J; Slade, R T. Kinetics and mechanism of degradation of zileuton, a potent 5-lipoxygenase inhibitor. Pharm. Res., 1992, 9(11): 1465-1473], zileuton in solution is expected to have adequate short-term stability (at least 1 month at 25° C.) over a pH range of 4 to 7.

For data set [2] the following is noted: cited from earlier work.
For data set [3] the following is noted: 25° C., pH range of 4 to 7, literature data; cited from earlier work.

Turning to `CC(c1cc2ccccc2s1)N(O)C(N)=O` (racemic) [zileuton, ((±)-1-(1-benzo[b]thien-2-ylethyl)-1-hydroxyurea], the “pseudo first-order rate constant (degradation)” value in data set [1] is “approximately 7.8×10^−5 h^−1”. In data set [1] (optimal pH of 5.6, 25° C.), the “shelf life at 10% drug loss” value stood at 57.3 days. For the same compound, the solubility in acetonitrile result in data set [2] (acetonitrile) is given as “slightly soluble”. Moreover, the “solubility in hexane and water” value in data set [2] (hexane and water) is recorded as “practically insoluble”. Also, in data set [2] (methanol and ethanol), the “solubility in methanol and ethanol” value was “soluble”. The water solubility in data set [2] (water, 25° C.) was 80 to 140 µg/mL. For the same compound, in data set [3], the “short-term stability in solution” value was “at least 1 month”.
